Data from patent US8663629B2, “Kallikrein-binding “kunitz domain” proteins and analogues thereof” (Dyax Corp., priority 1994, dated 2014).
Bridge positions count the residues as written; N and C are the ends. Ends that are not written are not given here. * marks the point of attachment. CH2F = FC*

How the values were obtained:
Trypsin [1] = settings: ANGL87; cited from earlier work
plasma Kallikrein [2] = target: T1, plasma Kallikrein (Homo sapiens, UniProt P03952); settings: ANGL87; cited from earlier work
Target sequence in this assay (P03952 20-390): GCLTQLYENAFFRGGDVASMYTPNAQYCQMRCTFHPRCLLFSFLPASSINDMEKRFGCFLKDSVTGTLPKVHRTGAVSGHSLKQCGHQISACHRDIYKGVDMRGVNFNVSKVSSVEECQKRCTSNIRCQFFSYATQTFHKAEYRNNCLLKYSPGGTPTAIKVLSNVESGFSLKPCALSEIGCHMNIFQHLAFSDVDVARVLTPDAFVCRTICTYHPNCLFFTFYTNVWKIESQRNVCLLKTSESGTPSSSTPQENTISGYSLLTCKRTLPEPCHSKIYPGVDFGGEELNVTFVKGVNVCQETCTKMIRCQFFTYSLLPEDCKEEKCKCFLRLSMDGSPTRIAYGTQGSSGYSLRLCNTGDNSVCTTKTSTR
Target sequence in this assay (P03952 391-638): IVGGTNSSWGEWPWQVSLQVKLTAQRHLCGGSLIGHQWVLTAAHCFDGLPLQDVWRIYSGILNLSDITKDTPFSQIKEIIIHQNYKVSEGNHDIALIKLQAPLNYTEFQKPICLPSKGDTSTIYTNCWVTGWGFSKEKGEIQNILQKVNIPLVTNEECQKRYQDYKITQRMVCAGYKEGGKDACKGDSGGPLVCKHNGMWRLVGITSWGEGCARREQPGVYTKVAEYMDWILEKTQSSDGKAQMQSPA

Thrombin = Thrombin (Homo sapiens, UniProt P00734); test: Display-phage binding to thrombin target (specificity); settings: compared to the parental phage display LACI-K1
Plasmin [3] = target: T2, Plasmin (Homo sapiens, UniProt P00747); test: Display-phage binding to plasmin target (specificity); settings: compared to the parental phage display LACI-K1
T2 sequence (P00747 581-810 limits assumed, species assumed): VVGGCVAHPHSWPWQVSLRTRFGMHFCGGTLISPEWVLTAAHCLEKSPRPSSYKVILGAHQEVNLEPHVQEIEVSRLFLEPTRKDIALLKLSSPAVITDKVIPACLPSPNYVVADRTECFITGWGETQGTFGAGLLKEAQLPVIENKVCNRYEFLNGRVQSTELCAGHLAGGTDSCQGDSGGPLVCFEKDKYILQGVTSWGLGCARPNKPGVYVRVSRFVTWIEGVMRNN
T2 sequence (P00747 97-580 partner limits assumed, species assumed): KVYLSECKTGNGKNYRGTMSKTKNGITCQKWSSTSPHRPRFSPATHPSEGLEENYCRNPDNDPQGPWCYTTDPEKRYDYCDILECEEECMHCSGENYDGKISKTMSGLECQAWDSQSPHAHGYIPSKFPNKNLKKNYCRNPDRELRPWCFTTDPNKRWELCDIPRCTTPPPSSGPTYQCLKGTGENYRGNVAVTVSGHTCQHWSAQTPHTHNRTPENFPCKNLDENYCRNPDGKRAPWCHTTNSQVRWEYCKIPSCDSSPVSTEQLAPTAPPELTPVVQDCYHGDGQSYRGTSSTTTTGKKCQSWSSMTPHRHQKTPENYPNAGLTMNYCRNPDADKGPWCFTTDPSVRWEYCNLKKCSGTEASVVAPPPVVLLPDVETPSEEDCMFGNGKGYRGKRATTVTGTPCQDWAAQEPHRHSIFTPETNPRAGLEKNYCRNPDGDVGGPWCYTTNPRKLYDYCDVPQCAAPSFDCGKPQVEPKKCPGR

plasma Kallikrein [4] = target: T1, plasma Kallikrein; test: Display-phage binding to human plasma kallikrein-agarose beads; design: The light chain (248 residues) carries the catalytic site; purchased Calbiochem #420302
Experimental: This method is highly sensitive because the genetic packages can be amplified. We obtain at least semiquantitative values for the binding constants by use of a pH step gradient.
The overall scheme for selecting a LACI(K1) variant to bind to a given protease involves incubation of the phage-display library with the kallikrein-beads of interest in a buffered solution (PBS containing 1 mg/ml BSA) followed by washing away the unbound and poorly retained display-phage variant with PBS containing 0.1% Tween 20. Kallikrein beads were made by coupling human plasma Kallikrein (Calbiochem, San Diego, Calif., #420302) to agarose beads using Reactigel (6×) (Pierce, Rockford, Ill., #202606). […]
The neutralized eluted display-phage can be either used: • i) to inoculate an F^+ strain of E. coli to generate a new display-phage stock, to be used for subsequent rounds of selection (so-called conventional screening), or • ii) be used directly for another immediate round of selection with the protease beads (so-called quick screening). Typically, three rounds of either method, or a combination of the two, are performed to give rise to the final selected display-phage from which a representative number are sequenced and analyzed for binding properties either as pools of display-phage or as individual clones.
Target sequence in this assay (P03952 391-638 limits assumed): as the sequence (P03952 391-638) above
Target sequence in this assay (P03952 20-390 limits assumed): as the sequence (P03952 20-390) above

Trypsin [5] = test: Display-phage binding to trypsin target (specificity); settings: compared to the parental phage display LACI-K1
pKA (plasma kallikrein) = pKA (plasma kallikrein) (Homo sapiens, UniProt P03952); test: biochemical
Chain of pKA (plasma kallikrein) (P03952 391-638 limits assumed): as the sequence (P03952 391-638) above
Chain of pKA (plasma kallikrein) (P03952 20-390 limits assumed): as the sequence (P03952 20-390) above
From the text: (§1) A second method appropriate for measuring the affinity of inhibitors for enzymes is to measure the ability of the inhibitor to slow the action of the enzyme. This method requires, depending on the speed at which the enzyme cleaves substrate and the availability of chromogenic or fluorogenic substrates, tens of micrograms to milligrams of relatively pure inhibitor.

Plasmin [6] = target: T2, Plasmin; test: biochemical
From the text: as §1

In the case of Ala-Phe-Lys-CH2F, the inhibition of trypsin (Trypsin [1]) is given as “active-centre-directed inhibitor” and the “inhibition of plasma kallikrein” value (plasma Kallikrein [2]) is given as “active-centre-directed inhibitor”.
With “bovine pancreatic trypsin inhibitor [BPTI]” the “relative binding of phage display clones, target Thrombin” value (Thrombin) was “(1.1)”, the “relative binding of phage display clones, target Plasmin” value (Plasmin [3]) was “(88)^4” and the “relative binding of phage display clones, target Kallikrein” value (plasma Kallikrein [4]; compared to the parental phage display LACI-K1) was “(1.7)”. For the same substance, the “Relative Binding” value (plasma Kallikrein [4]; fraction bound relative to the parental display-phage LACI(K1)) was 6.0, the “relative binding of phage display clones, target Trypsin” value (Trypsin [5]) was “(0.3)” and the “relative binding of phage display clones, target Trypsin, two washes” value (Trypsin [5]; two washes) was “(0.8)”.
In the case of “MHSFCAFKADDGHCKANHQRFFFNIFTRQCEEFSYGGCGGNQNRFESLEECKKMCTRD (disulfide 5-55, 14-38, 30-51) [KKII/3#6]”, the Ki (pKA (plasma kallikrein)) is reported as < 0.0005 µM, the Ki for kallikrein (pKA (plasma kallikrein); stated in words) is reported as “nanomolar range” and the “Ki for kallikrein relative to wild-type LACI and BPTI” value (pKA (plasma kallikrein); versus both wild-type LACI and BPTI) is reported as “over 100 times”. For the same substance, the Ki (Plasmin [6]) was 10 µM.
